Data taken from ChEMBL document CHEMBL5727951, “Substituted benzamides and methods of use thereof” (2020).

assay: Tritiated Sulfonamide Binding to Membranes: isolated from cells that heterologously express hNav1.7 and the β1 subunit Preparation of membranes containing recombinantly expressed sodium channels: Frozen recombinant cell pellets were thawed on ice and diluted to 4 times the cell pellet weight with ice cold 50 mM Tris HCl, pH 7.4 buffer. The cell suspensions were homogenized on ice using a motorized glass dounce homogeniser. Homogenates were further diluted 8.4 times with ice cold 50 mM Tris HCl, pH 7.4 buffer and then centrifuged at 200×g at 4° C. for 15 min. The supernatants were collected and centrifuged at 10000×g at 4° C. for 50 min. The pellets were then re-suspended in 100 mM NaCl, 20 mM Tris HCl, pH 7.4 buffer containing 1% v/v protease inhibitors (Calbiochem) and re-homogenized on ice. The homogenized membranes were then processed through a syringe equipped with a 26 gauge needle. Protein concentrations were determined by Bradford Assay and the membranes were stored at −80° C.Radioligand Binding Studies:Saturation experiments. A representative compound of formula (I) having a methyl group was tritiated. Three tritiums were incorporated in place of methyl hydrogens to generate [3H]compound. Binding of this radioligand was preformed in 5 mL borosilicate glass test tubes at room temperature. Binding was initiated by adding membranes to increasing concentrations of [3H]compound in 100 mM NaCl, 20 mM Tris HCl, pH 7.4 buffer containing 0.01% w/v bovine serum albumin (BSA) for 18 h. Non-specific binding was determined in the presence of 1 μM unlabelled compound. After 18 h, the reactants were filtered through GF/C glass fiber filters presoaked in 0.5% w/v polyethylene imine. Filters were washed with 15 mL ice cold 100 mM NaCl, 20 mM Tris HCl, pH7.4 buffer containing 0.25% BSA to separate bound from free ligand. [3H]compound bound to filters was quantified by liquid scintillation counting.Competitive Binding Experiments:Binding reactions were preformed in 96-well polypropylene plates at room temperature for 18 h. In 360 μL, membranes were incubated with 100 pM [3H]compound and increasing concentrations of Test Compound. Non-specific binding was defined in the presence of 1 μM unlabelled compound. Reactions were transferred and filtered through 96-well glass fiber/C filter plates presoaked with 0.5% polyethylene imine. The filtered reactions were washed 5 times with 200 μL ice cold buffer containing 0.25% BSA. Bound radioactivity was determined by liquid scintillation counting.Data Analysis: For saturation experiments, non-specific binding was subtracted from total binding to provide specific binding and these values were recalculated in terms of pmol ligand bound per mg protein. Saturation curves were constructed and dissociation constants were calculated using the single site ligand binding model: Beq=(Bmax*X)/(X+Kd), where Beq is the amount of ligand bound at equilibrium, Bmax is the maximum receptor density, Kd is the dissociation constant for the ligand, and X is the free ligand concentration. For competition studies percent inhibition was determined and IC50 values were calculated using a 4 parameter logistic model (% inhibition=(A+((B−A)/(1+((x/C)^D)))) using XLfit, where A and B are the maximal and minimum inhibition respectively, C is the IC50 concentration and D is the (Hill) slope.

SMILES | IC50 [nM]
CC(C)Oc1ncc(Oc2cc(F)c(C(=O)NS(=N)(=O)C3CC3)cc2Cl)cc1Cl (centres undefined) | 18.1
N=S(=O)(NC(=O)c1cc(F)c(Oc2ccc(OC(F)(F)F)c(Cl)c2)cc1F)C1CC1 (centres undefined) | 238
N=S(=O)(NC(=O)c1cc(C2CC2)c(O[C@@H]2CCCN(Cc3c(Cl)cccc3Cl)C2)cc1F)C1CC1 (some centres undefined) | 2290
COc1cc(C(=O)NS(=N)(=O)C2CC2)c(F)cc1OCC12CC3CC(CC(C3)C1)C2 (centres undefined) | 210
N=S(=O)(NC(=O)c1cc(C2CC2)c(COc2cc(F)cc(C(F)(F)F)c2)cc1F)C1CC1 (centres undefined) | 14.2
N=S(=O)(NC(=O)c1cc(C2CC2)c(OCC23CC4CC(CC(C4)C2)C3)cc1F)N1CCC1 (centres undefined) | 80.9
C[C@@H](c1cc(Cl)cc(Cl)c1)N1CCC(COc2cc(F)c(C(=O)NS(=N)(=O)C3CC3)cc2C2CC2)CC1 (some centres undefined) | 92.5
N=S(=O)(NC(=O)c1cc(Cl)c(Oc2cnc(OCC(F)(F)C(F)F)c(Cl)c2)cc1F)N1CCC1 (centres undefined) | 159
N=S(=O)(NC(=O)c1cc(C2CC2)c(OCC2(F)CCN(Cc3cc(C(F)(F)F)cc(Cl)c3F)CC2)cc1F)C1CC1 (centres undefined) | 182
C[C@@H](c1cc(Cl)cc(Cl)c1)N1CCC(COc2ccc(C(=O)NS(=N)(=O)C3CC3)cc2C2CC2)CC1 (some centres undefined) | 616
COc1ncccc1-c1cc(C(=O)NS(=N)(=O)C2CC2)c(F)cc1Oc1cnc(OC(C)C)c(Cl)c1 (centres undefined) | 19.8
N=S(=O)(NC(=O)c1cc(Cl)c(Oc2cnc(OCC(F)(F)C(F)F)c(Cl)c2)cc1F)C1CC1 (centres undefined) | 23.8
N=S(=O)(NC(=O)c1cc(Cl)c(Oc2cnc(OCC(F)(F)F)c(Cl)c2)cc1F)C1CC1 (centres undefined) | 23.6
N=S(=O)(NC(=O)c1cc(C2CC2)c(COc2cc(Cl)cc(OC(F)(F)F)c2)cc1F)C1CC1 (centres undefined) | 8.67
